Measurements published in patent US20220162191A1, “SMALL MOLECULE MODULATORS OF IL-17” (LEO PHARMA A/S, priority 2019, published 2022).

These compounds were tested against T1, human IL-17AA (Homo sapiens, UniProt Q16552) (assay: IL-8 release assay in human epithelial keratinocytes adult (HEKa)). Conditions: 3 ng/ml human IL-17AA + 10 ng/ml human TNFalpha, 68-72 h, IL-8 by HTRF, read-out: Rel EC50 L-8 release assay.
T1 construct: host or cells: HEK (human embryonic kidney) cells
T1 sequence (Q16552 24-155) 1: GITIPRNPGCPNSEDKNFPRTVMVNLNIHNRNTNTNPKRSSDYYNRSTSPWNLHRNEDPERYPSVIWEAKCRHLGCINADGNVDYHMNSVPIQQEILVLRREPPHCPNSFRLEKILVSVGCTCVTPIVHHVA
T1 sequence (Q16552 24-155) 2: T1 sequence (Q16552 24-155) 1
Type: cell-based
Method in brief: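 IL-8 secretion, quantified by HTRF (665/620 nm) as percent of controls, served as the readout after 68–72 h culture of HEKa cells with compound plus IL-17AA (3 ng/ml final) and TNF-alpha (10 ng/ml final). Four-parameter logistic curves gave relative IC50 and Emax.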

EC50, > 1000 nM:
CC(C)n1cc(-c2ccc(Cl)c(C[C@H](NC(=O)O[C@H](C)C(F)(F)F)C(=O)Nc3ccc(-c4nncn4C)cc3)c2)ccc1=O [Example 286, [(1R)-2,2,2-trifluoro-1-methyl-ethyl] N-[(1S)-1-[[2-chloro-5-(1-isopropyl-6-oxo-3-pyridyl)phenyl]methyl]-2-[4-(4-methyl-1,2,4-triazol-3-yl)anilino]-2-oxo-ethyl]carbamate]
CC(C)n1cc(-c2ccc(Cl)c(C[C@H](NC(=O)[C@@H]3CC3(F)F)C(=O)Nc3ccc(-c4nncn4C)cc3)c2)ccc1=O [Example 287, (1S)-N-[(1S)-1-[[2-chloro-5-(1-isopropyl-6-oxo-3-pyridyl)phenyl]methyl]-2-[4-(4-methyl-1,2,4-triazol-3-yl)anilino]-2-oxo-ethyl]-2,2-difluoro-cyclopropanecarboxamide]
CC(C)n1cc(-c2ccc(Cl)c(C[C@H](NC(=O)[C@H]3CC3(F)F)C(=O)Nc3ccc(-c4nncn4C)cc3)c2)ccc1=O [Example 288, (1R)-N-[(1S)-1-[[2-chloro-5-(1-isopropyl-6-oxo-3-pyridyl)phenyl]methyl]-2-[4-(4-methyl-1,2,4-triazol-3-yl)anilino]-2-oxo-ethyl]-2,2-difluoro-cyclopropanecarboxamide]
CC(C)n1cc(-c2ccc(Cl)c(C[C@H](NC(=O)C3CC(F)(F)C3)C(=O)Nc3ccc(-c4nncn4C)cc3)c2)ccc1=O [Example 291, N-[(1S)-1-[[2-chloro-5-(1-isopropyl-6-oxo-3-pyridyl)phenyl]methyl]-2-[4-(4-methyl-1,2,4-triazol-3-yl)anilino]-2-oxo-ethyl]-3,3-difluoro-cyclobutanecarboxamide]
CC(C)n1cc(-c2ccc(Cl)c(C[C@H](NC(=O)C3CCC3)C(=O)Nc3ccc(-c4nncn4C)cc3)c2)ccc1=O [Example 293, N-[(1S)-1-[[2-chloro-5-(1-isopropyl-6-oxo-3-pyridyl)phenyl]methyl]-2-[4-(4-methyl-1,2,4-triazol-3-yl)anilino]-2-oxo-ethyl]cyclobutanecarboxamide]
Cn1cnnc1-c1ccc(NC(=O)C(Cc2cc(-c3ccc(O)c(C(=O)N4CCOCC4)c3)ccc2Cl)NC(=O)c2ccnn2C)cc1 (stereo not shown) [Example 296, N-[1-[[2-chloro-5-[4-hydroxy-3-(morpholine-4-carbonyl)phenyl]phenyl]methyl]-2-[4-(4-methyl-1,2,4-triazol-3-yl)anilino]-2-oxo-ethyl]-2-methyl-pyrazole-3-carboxamide]
CC(C)n1cc(-c2ccc(Cl)c(CC(NC(=O)c3ccnn3C)C(=O)Nc3ccc(-c4ncnn4C)cc3)c2)ccc1=O (stereo not shown) [Example 301, N-[1-[[2-chloro-5-(1-isopropyl-6-oxo-3-pyridyl)phenyl]methyl]-2-[4-(2-methyl-1,2,4-triazol-3-yl)anilino]-2-oxo-ethyl]-2-methyl-pyrazole-3-carboxamide]
Cc1nocc1C(=O)NC(Cc1cc(-c2ccnc(C(=O)N(C)C3CC3)c2)ccc1Cl)C(=O)Nc1ccc(-c2nncn2C)cc1 (stereo not shown) [Example 306, N-[1-[[2-chloro-5-[2-[cyclopropyl(methyl)carbamoyl]-4-pyridyl]phenyl]methyl]-2-[4-(4-methyl-1,2,4-triazol-3-yl)anilino]-2-oxo-ethyl]-3-methyl-isoxazole-4-carboxamide]
CC(C)n1cc(-c2ccc(Cl)c(CC(NC(=O)C3(F)CC3)C(=O)Nc3ccc(-c4nncn4C)cc3)c2)cc(C(F)(F)F)c1=O (stereo not shown) [Example 307, N-[1-[[2-chloro-5-[1-isopropyl-6-oxo-5-(trifluoromethyl)-3-pyridyl]phenyl]methyl]-2-[4-(4-methyl-1,2,4-triazol-3-yl)anilino]-2-oxo-ethyl]-1-fluoro-cyclopropanecarboxamide]
Cn1cnnc1-c1ccc(NC(=O)C(Cc2cc(-c3ccc(C#N)cc3)ccc2Cl)NC(=O)c2ccnn2C)cc1 (stereo not shown) [Example 308, N-[1-[[2-chloro-5-(4-cyanophenyl)phenyl]methyl]-2-[4-(4-methyl-1,2,4-triazol-3-yl)anilino]-2-oxo-ethyl]-2-methyl-pyrazole-3-carboxamide]
